# Source: patent publication US8129417B2, “Substituted octahydrocyclopenta[C]pyrrol-4-amines as calcium channel blockers” (Abbott Laboratories, priority 2008, dated 2012)
# Target: human Cav2.2 (Homo sapiens, UniProt Q00975)
# Experiment: Assessment of calcium channel activity using FLIPR (Ca2+ influx in IMR32 cells)
# Type: cell-based
# Conditions: 60 minute pre-incubation with compound, 2 μM nifedipine, depolarized with 80 mM KCl
# In short: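 IC50 came from sigmoidal non-linear regression of percent inhibition, relative to uninhibited activity, across compound concentrations. Calcium influx was measured by FLIPR in IMR32 cells plated at 1-1.2×10^5 cells/well and cultured 48 h at 37 °C.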
# Sequence of human Cav2.2 (Q00975 whole entry): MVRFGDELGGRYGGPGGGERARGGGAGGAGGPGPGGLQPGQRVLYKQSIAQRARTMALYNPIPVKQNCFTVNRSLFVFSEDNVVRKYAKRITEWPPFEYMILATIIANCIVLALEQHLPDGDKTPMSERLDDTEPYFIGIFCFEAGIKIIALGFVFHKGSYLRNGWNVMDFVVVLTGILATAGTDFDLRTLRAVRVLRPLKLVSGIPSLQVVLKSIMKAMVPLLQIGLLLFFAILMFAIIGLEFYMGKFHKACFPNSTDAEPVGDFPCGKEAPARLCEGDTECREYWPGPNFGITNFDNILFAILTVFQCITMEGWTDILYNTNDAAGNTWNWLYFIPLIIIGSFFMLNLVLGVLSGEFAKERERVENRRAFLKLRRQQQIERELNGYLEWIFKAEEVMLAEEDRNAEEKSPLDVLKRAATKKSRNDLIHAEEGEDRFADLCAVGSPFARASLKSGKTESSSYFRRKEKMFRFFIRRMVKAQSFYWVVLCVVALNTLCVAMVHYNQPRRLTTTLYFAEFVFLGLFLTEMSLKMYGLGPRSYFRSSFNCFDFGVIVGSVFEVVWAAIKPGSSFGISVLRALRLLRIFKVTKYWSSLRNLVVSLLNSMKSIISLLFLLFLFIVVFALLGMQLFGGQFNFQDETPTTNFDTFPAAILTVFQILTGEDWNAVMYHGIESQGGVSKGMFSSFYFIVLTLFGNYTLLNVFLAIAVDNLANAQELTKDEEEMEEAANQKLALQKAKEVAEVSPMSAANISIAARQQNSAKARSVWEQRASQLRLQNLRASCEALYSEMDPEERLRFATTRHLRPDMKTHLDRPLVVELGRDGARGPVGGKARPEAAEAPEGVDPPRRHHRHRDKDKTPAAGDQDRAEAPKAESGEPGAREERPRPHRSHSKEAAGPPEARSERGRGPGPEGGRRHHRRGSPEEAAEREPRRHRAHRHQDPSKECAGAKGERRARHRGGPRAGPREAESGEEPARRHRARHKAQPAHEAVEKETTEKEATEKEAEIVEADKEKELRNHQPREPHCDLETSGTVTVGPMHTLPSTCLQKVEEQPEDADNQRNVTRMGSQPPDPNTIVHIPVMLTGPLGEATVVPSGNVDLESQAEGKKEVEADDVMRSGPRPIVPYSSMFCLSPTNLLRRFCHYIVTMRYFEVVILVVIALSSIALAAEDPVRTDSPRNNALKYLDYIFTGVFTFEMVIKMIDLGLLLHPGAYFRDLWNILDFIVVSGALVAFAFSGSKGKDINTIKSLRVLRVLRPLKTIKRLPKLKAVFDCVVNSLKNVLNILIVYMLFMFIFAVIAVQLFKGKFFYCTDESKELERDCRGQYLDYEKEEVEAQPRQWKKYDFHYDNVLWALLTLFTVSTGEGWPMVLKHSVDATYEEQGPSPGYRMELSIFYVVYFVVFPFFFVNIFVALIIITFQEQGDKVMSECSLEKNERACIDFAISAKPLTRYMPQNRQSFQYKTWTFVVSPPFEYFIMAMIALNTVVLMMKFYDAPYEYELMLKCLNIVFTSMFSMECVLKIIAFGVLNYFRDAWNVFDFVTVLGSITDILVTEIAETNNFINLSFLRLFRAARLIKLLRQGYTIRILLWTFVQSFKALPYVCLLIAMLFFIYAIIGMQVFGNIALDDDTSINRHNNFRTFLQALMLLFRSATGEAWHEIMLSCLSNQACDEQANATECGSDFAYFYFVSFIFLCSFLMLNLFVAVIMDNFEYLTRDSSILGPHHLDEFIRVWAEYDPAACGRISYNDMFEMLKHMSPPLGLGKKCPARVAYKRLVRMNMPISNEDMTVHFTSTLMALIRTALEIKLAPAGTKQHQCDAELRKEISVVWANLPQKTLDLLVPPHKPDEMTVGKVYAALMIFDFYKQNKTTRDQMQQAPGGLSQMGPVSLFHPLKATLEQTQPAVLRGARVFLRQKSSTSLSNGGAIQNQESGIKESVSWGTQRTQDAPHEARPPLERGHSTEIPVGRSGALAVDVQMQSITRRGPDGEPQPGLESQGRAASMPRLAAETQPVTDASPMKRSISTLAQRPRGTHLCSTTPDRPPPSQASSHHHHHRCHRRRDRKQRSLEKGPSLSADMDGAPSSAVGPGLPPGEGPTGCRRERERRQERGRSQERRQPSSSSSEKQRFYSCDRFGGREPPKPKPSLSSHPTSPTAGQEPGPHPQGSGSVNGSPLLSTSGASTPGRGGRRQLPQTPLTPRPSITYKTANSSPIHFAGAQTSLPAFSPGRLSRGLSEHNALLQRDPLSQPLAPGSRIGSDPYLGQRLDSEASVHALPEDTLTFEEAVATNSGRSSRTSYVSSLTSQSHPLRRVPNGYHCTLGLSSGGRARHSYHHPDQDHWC
# Sequence of human Cav2.2 (P54289 25-946 partner limits assumed): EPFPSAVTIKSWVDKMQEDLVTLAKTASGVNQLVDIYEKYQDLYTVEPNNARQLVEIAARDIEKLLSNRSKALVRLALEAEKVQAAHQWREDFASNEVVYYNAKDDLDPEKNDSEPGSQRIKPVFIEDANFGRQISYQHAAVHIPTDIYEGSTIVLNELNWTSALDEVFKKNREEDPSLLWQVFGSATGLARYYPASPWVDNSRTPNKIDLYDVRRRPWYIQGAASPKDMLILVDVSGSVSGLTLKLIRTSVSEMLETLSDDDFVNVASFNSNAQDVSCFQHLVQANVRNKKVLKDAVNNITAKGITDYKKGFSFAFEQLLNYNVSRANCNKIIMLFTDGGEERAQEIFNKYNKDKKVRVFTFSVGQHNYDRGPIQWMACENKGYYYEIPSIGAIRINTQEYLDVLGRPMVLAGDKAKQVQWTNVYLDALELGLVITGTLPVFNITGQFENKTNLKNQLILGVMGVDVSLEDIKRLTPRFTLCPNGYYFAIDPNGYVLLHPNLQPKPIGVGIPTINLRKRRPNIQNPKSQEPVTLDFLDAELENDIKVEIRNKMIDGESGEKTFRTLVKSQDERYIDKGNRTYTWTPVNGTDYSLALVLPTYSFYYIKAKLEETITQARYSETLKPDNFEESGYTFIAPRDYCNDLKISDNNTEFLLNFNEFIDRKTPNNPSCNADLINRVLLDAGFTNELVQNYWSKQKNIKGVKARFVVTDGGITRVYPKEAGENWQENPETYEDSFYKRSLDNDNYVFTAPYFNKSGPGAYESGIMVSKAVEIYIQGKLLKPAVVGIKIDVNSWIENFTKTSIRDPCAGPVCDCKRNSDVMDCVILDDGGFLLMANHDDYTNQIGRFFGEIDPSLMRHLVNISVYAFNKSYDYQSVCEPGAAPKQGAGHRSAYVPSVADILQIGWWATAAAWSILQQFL
# Sequence of human Cav2.2 (P54289 947-1103 partner limits assumed): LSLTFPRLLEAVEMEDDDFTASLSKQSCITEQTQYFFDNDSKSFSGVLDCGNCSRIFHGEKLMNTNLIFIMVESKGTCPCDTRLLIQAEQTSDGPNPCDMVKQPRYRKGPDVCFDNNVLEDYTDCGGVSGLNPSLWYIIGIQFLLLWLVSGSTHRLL
# Sequence of human Cav2.2 (P54284 whole entry partner): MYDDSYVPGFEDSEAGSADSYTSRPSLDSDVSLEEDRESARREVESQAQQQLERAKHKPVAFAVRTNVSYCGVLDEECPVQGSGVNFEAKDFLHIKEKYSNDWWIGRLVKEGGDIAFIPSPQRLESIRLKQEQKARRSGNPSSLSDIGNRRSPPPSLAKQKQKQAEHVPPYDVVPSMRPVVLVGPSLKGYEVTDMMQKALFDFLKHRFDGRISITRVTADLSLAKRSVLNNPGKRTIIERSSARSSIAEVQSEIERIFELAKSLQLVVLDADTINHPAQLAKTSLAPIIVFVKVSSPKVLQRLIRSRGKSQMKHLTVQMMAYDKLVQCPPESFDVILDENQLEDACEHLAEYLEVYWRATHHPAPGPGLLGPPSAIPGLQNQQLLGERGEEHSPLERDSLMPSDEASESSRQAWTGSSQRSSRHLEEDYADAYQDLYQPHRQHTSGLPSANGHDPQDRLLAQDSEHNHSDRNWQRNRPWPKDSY
row,Compound,IC50 [µM]
1,"CN[C@@H](CC(C)C)C(=O)N[C@@H]1CC[C@H]2CN(Cc3ccc(C(F)(F)F)cc3)C[C@H]21 [Example 449, N^2-methyl-N^1-{(3aS,4R,6aR)-2-[4-(trifluoromethyl)benzyl]octahydrocyclopenta[c]pyrrol-4-yl}-L-leucinamide]",4.06
2,"CN[C@H](C(=O)N[C@H]1CC[C@@H]2CN(S(=O)(=O)c3ccc(C(F)(F)F)cc3)C[C@@H]21)C(C)C [Example 451, N^2-methyl-N^1-((3aR,4S,6aS)-2-{[4-(trifluoromethyl)phenyl]sulfonyl}octahydrocyclopenta[c]pyrrol-4-yl)-L-valinamide]",0.8
3,"CN[C@H](C(=O)N[C@H]1CC[C@@H]2CN(S(=O)(=O)c3ccc(F)cc3)C[C@@H]21)C(C)C [Example 452, N^1-{(3aR,4S,6aS)-2-[(4-fluorophenyl)sulfonyl]octahydrocyclopenta[c]pyrrol-4-yl}-N^2-methyl-L-valinamide]",9.12
4,"CC(C)(C)C[C@H](N)C(=O)N[C@H]1CC[C@@H]2CN(S(=O)(=O)c3ccc(F)cc3)C[C@@H]21 [Example 453, N^1-{(3aR,4S,6aS)-2-[(4-fluorophenyl)sulfonyl]octahydrocyclopenta[c]pyrrol-4-yl}-4-methyl-L-leucinamide]",4.23
5,"CCCC[C@H](NC)C(=O)N[C@H]1CC[C@@H]2CN(S(=O)(=O)c3ccc(F)cc3)C[C@@H]21 [Example 454, N^1-{(3aR,4S,6aS)-2-[(4-fluorophenyl)sulfonyl]octahydrocyclopenta[c]pyrrol-4-yl}-N^2-methyl-L-norleucinamide]",2.03
6,"CN[C@@H](CC(C)C)C(=O)N[C@H]1CC[C@@H]2CN(S(=O)(=O)c3ccc(F)cc3)C[C@@H]21 [Example 455, N^1-{(3aR,4S,6aS)-2-[(4-fluorophenyl)sulfonyl]octahydrocyclopenta[c]pyrrol-4-yl}-N^2-methyl-L-leucinamide]",3.03
7,"CCC[C@H](NC)C(=O)N[C@H]1CC[C@H]2CN(S(=O)(=O)c3ccc(C(F)(F)F)cc3)C[C@H]21 [Example 456, N^2-methyl-N^1-((3aS,4S,6aR)-2-{[4-(trifluoromethyl)phenyl]sulfonyl}octahydrocyclopenta[c]pyrrol-4-yl)-L-norvalinamide]",5.33
8,"CN[C@@H](CC(C)C)C(=O)N[C@H]1CC[C@H]2CN(S(=O)(=O)c3ccc(C(F)(F)F)cc3)C[C@H]21 [Example 457, N^2-methyl-N^1-((3aS,4S,6aR)-2-{[4-(trifluoromethyl)phenyl]sulfonyl}octahydrocyclopenta[c]pyrrol-4-yl)-L-leucinamide]",3.07
9,"CCC[C@H](NC)C(=O)N[C@H]1CC[C@@H]2CN(CCC(c3ccc(F)cc3)c3ccc(F)cc3)C[C@@H]21 [Example 458, N^1-{(3aR,4S,6aS)-2-[3,3-bis(4-fluorophenyl)propyl]octahydrocyclopenta[c]pyrrol-4-yl}-N^2-methyl-L-norvalinamide]",3.08
10,"CN[C@@H](CC(C)C)C(=O)N1C[C@H]2CC[C@H](NC(=O)C(c3ccc(F)cc3)c3ccc(F)cc3)[C@H]2C1 [Example 459, 2,2-bis(4-fluorophenyl)-N-[(3aR,4S,6aS)-2-(N-methyl-L-leucyl)octahydrocyclopenta[c]pyrrol-4-yl]acetamide]",1.62
11,"CCC[C@H](NC)C(=O)N1C[C@H]2CC[C@H](NC(=O)C(c3ccc(F)cc3)c3ccc(F)cc3)[C@H]2C1 [Example 460, 2,2-bis(4-fluorophenyl)-N-[(3aR,4S,6aS)-2-(N-methyl-L-norvalyl)octahydrocyclopenta[c]pyrrol-4-yl]acetamide]",2.69
12,"CN[C@@H](CC(C)(C)C)C(=O)N1C[C@H]2CC[C@H](NC(=O)C(c3ccc(F)cc3)c3ccc(F)cc3)[C@H]2C1 [Example 461, N-[(3aR,4S,6aS)-2-(N,4-dimethyl-L-leucyl)octahydrocyclopenta[e]pyrrol-4-yl]-2,2-bis(4-fluorophenyl)acetamide]",1.88
13,"FC(F)(F)c1cccc(CN2C[C@H]3CC[C@H](NC(c4ccccc4)c4ccccc4)[C@H]3C2)c1 [Example 466, (3aR,4S,6aS)—N-benzhydryl-2-[3-(trifluoromethyl)benzyl]octahydrocyclopenta[c]pyrrol-4-amine]",2.33
14,"CN[C@@H](CC(C)C)C(=O)N[C@@H]1CC[C@H]2CN(C(c3ccccc3)c3ccccc3)C[C@H]21 [Example 469, N^1-[(3aS,4R,6aR)-2-benzhydryloctahydrocyclopenta[c]pyrrol-4-yl]-N^2-methyl-L-leucinamide]",2.24
15,"CCCN[C@@H](CC(C)(C)C)C(=O)N[C@H]1CC[C@@H]2CN(S(=O)(=O)c3ccc(C(F)(F)F)cc3)C[C@@H]21 [Example 470, 4-methyl-N^2-propyl-N^1-((3aR,4S,6aS)-2-{[4-(trifluoromethyl)phenyl]sulfonyl}octahydrocyclopenta[c]pyrrol-4-yl)-L-leucinamide]",1.03
16,"CC(C)(C)C[C@H](NCC1CC1)C(=O)N[C@H]1CC[C@@H]2CN(S(=O)(=O)c3ccc(C(F)(F)F)cc3)C[C@@H]21 [Example 471, N^2-(cyclopropylmethyl)-4-methyl-N^1-((3aR,4S,6aS)-2-{[4-(trifluoromethyl)phenyl]sulfonyl}octahydrocyclopenta[c]pyrrol-4-yl)-L-leucinamide]",0.65
17,"CC(C)(C)C[C@H](NCC1CCC1)C(=O)N[C@H]1CC[C@@H]2CN(S(=O)(=O)c3ccc(C(F)(F)F)cc3)C[C@@H]21 [Example 472, N^2-(cyclobutylmethyl)-4-methyl-N^1-((3aR,4S,6aS)-2-{[4-(trifluoromethyl)phenyl]sulfonyl}octahydrocyclopenta[c]pyrrol-4-yl)-L-leucinamide]",1.27
18,"CC(C)CN[C@@H](CC(C)(C)C)C(=O)N[C@H]1CC[C@@H]2CN(S(=O)(=O)c3ccc(C(F)(F)F)cc3)C[C@@H]21 [Example 473, N^2-isobutyl-4-methyl-N^1-((3aR,4S,6aS)-2-{[4-(trifluoromethyl)phenyl]sulfonyl}octahydrocyclopenta[c]pyrrol-4-yl)-L-leucinamide]",2.66
19,"CC(C)(C)C[C@H](NCC1CCCC1)C(=O)N[C@H]1CC[C@@H]2CN(S(=O)(=O)c3ccc(C(F)(F)F)cc3)C[C@@H]21 [Example 474, N^2-(cyclopentylmethyl)-4-methyl-N^1-((3aR,4S,6aS)-2-{[4-(trifluoromethyl)phenyl]sulfonyl}octahydrocyclopenta[c]pyrrol-4-yl)-L-leucinamide]",1.74
20,"CC(C)(C)C[C@H](NCC1CCCCC1)C(=O)N[C@H]1CC[C@@H]2CN(S(=O)(=O)c3ccc(C(F)(F)F)cc3)C[C@@H]21 [Example 475, N^2-(cyclohexylmethyl)-4-methyl-N^1-((3aR,4S,6aS)-2-{[4-(trifluoromethyl)phenyl]sulfonyl}octahydrocyclopenta[c]pyrrol-4-yl)-L-leucinamide]",1.84
21,"CCCCN[C@@H](CC(C)(C)C)C(=O)N[C@H]1CC[C@@H]2CN(S(=O)(=O)c3ccc(C(F)(F)F)cc3)C[C@@H]21 [Example 476, N^2-butyl-4-methyl-N^1-((3aR,4S,6aS)-2-{[4-(trifluoromethyl)phenyl]sulfonyl}octahydrocyclopenta[c]pyrrol-4-yl)-L-leucinamide]",1.31
22,"CCN[C@@H](CC(C)(C)C)C(=O)N[C@H]1CC[C@@H]2CN(S(=O)(=O)c3ccc(C(F)(F)F)cc3)C[C@@H]21 [Example 477, N^2-ethyl-4-methyl-N^1-((3aR,4S,6aS)-2-{[4-(trifluoromethyl)phenyl]sulfonyl}octahydrocyclopenta[c]pyrrol-4-yl)-L-leucinamide]",1.88
23,"CCC[C@H](NC(C)C)C(=O)N[C@H]1CC[C@@H]2CN(S(=O)(=O)c3ccc(C(F)(F)F)cc3)C[C@@H]21 [Example 481, N^2-isopropyl-N^1-((3aR,4S,6aS)-2-{[4-(trifluoromethyl)phenyl]sulfonyl}octahydrocyclopenta[c]pyrrol-4-yl)-L-norvalinamide]",2.28
24,"CCC[C@H](NC(C)C)C(=O)N[C@@H]1CC[C@H]2CN(S(=O)(=O)c3ccc(C(F)(F)F)cc3)C[C@H]21 [Example 482, N^2-isopropyl-N^1-((3aS,4R,6aR)-2-{[4-(trifluoromethyl)phenyl]sulfonyl}octahydrocyclopenta[c]pyrrol-4-yl)-L-norvalinamide]",1.97
25,"CCC[C@H](NC(C)C)C(=O)N[C@H]1CC[C@@H]2CN(S(=O)(=O)c3cccc(C(F)(F)F)c3)C[C@@H]21 [Example 483, N^2-isopropyl-N^1-((3aR,4S,6aS)-2-{[3-(trifluoromethyl)phenyl]sulfonyl}octahydrocyclopenta[c]pyrrol-4-yl)-L-norvalinamide]",0.49
26,"CCC[C@H](NC(C)C)C(=O)N[C@@H]1CC[C@H]2CN(S(=O)(=O)c3cccc(C(F)(F)F)c3)C[C@H]21 [Example 484, N^2-isopropyl-N^1-((3aS,4R,6aR)-2-{[3-(trifluoromethyl)phenyl]sulfonyl}octahydrocyclopenta[c]pyrrol-4-yl)-L-norvalinamide]",0.97
27,"CC(C)N[C@@H](CC(C)(C)C)C(=O)N[C@H]1CC[C@@H]2CN(S(=O)(=O)c3cc(C(F)(F)F)ccc3Cl)C[C@@H]21 [Example 486, N^1-((3aR,4S,6aS)-2-{[2-chloro-5-(trifluoromethyl)phenyl]sulfonyl}octahydrocyclopenta[c]pyrrol-4-yl)-N^2-isopropyl-4-methyl-L-leucinamide]",1.21
28,"CC(C)N[C@@H](CC(C)(C)C)C(=O)N[C@H]1CC[C@@H]2CN(S(=O)(=O)c3ccc(C(F)(F)F)cc3Cl)C[C@@H]21 [Example 487, N^1-((3aR,4S,6aS)-2-{[2-chloro-4-(trifluoromethyl)phenyl]sulfonyl}octahydrocyclopenta[c]pyrrol-4-yl)-N^2-isopropyl-4-methyl-L-leucinamide]",0.56
29,"CC(C)N[C@@H](CC(C)(C)C)C(=O)N[C@H]1CC[C@@H]2CN(c3ccc(C(F)(F)F)cn3)C[C@@H]21 [Example 490, N^2-isopropyl-4-methyl-N^1-{(3aR,4S,6aS)-2-[5-(trifluoromethyl)pyridin-2-yl]octahydrocyclopenta[c]pyrrol-4-yl}-L-leucinamide]",3.12
